Test results as given in ChEMBL document CHEMBL1156413, “New acylated triterpene saponins from Silene fortunei that modulate lymphocyte proliferation” (2002).
The source made the active and inactive calls. The calls are words filed in the database; no cut-off is given here.

What was measured:
Jurkat [1] = assay: Induction of apoptosis in human Jurkat cells assessed as enhancement of early apoptotic cells population at 10 uM after 18 hrs using annexin V-FITC staining by flow cytometry relative to control; type: functional
Jurkat [2] = assay: Immunomodulatory activity in human Jurkat cells assessed as stimulation index at 0.001 to 5 uM after 36 hrs by [3H]thymidine incorporation assay; type: functional
Jurkat [3] = assay: Immunomodulatory activity in human Jurkat cells after 36 hrs by [3H]thymidine incorporation assay; type: functional, cell-based
Jurkat [4] = assay: Cytotoxicity against human Jurkat cells at 1 uM; type: functional, cell-based
Jurkat [5] = assay: Cytotoxicity against human Jurkat cells up to 10 uM; type: functional, cell-based
Jurkat [6] = assay: Cytotoxicity against human Jurkat cells at 5 to 10 uM; type: functional, cell-based
Jurkat [7] = assay: Induction of apoptosis in human Jurkat cells assessed as early apoptotic cells at 10 uM after 18 hrs using annexin V-FITC staining by flow cytometry; type: functional, cell-based
Jurkat [8] = assay: Cytotoxicity against human Jurkat cells at 5 uM; type: functional, cell-based

COc1ccc(/C=C/C(=O)O[C@@H]2[C@H](OC(C)=O)[C@@H](O[C@@H]3O[C@@H](C)[C@H](O)[C@@H](O)[C@H]3O)[C@H](OC(=O)[C@]34CCC(C)(C)C[C@H]3C3=CC[C@@H]5[C@@]6(C)CC[C@H](O[C@@H]7O[C@H](C(=O)O)[C@@H](O)[C@H](O)[C@H]7O[C@@H]7O[C@H](CO)[C@H](O)[C@H](O)[C@H]7O)[C@@](C)(C=O)[C@@H]6CC[C@@]5(C)[C@]3(C)C[C@H]4O)O[C@@H]2C)cc1
fold change (FC) (Jurkat [1]): 2.8
Activity (Jurkat [2]): 1.44
Activity (Jurkat [3]): Dose-dependent effect
Activity (Jurkat [4]): Active

CC(=O)OC[C@H]1O[C@@H](O[C@H]2[C@@H](OC(C)=O)[C@@H](C)O[C@@H](OC(=O)[C@]34CCC(C)(C)C[C@H]3C3=CC[C@@H]5[C@@]6(C)CC[C@H](O[C@@H]7O[C@H](C(=O)O)[C@@H](O)[C@H](O)[C@H]7O[C@@H]7O[C@H](CO)[C@H](O)[C@H](O)[C@H]7O)[C@@](C)(C=O)[C@@H]6CC[C@@]5(C)[C@]3(C)C[C@H]4O)[C@@H]2O[C@@H]2O[C@@H](C)[C@H](O[C@@H]3OC[C@@H](O)[C@H](O[C@@H]4OC[C@H](O)[C@H](O)[C@H]4O[C@@H]4OC[C@H](O)[C@H](O)[C@H]4O)[C@H]3O)[C@@H](O)[C@H]2O)[C@H](O)[C@@H](O)[C@@H]1O
Activity (Jurkat [5]): inactive
Activity (Jurkat [2]): 1.56

C[C@@H]1O[C@@H](O[C@H]2[C@H](OC(=O)[C@]34CCC(C)(C)C[C@H]3C3=CC[C@@H]5[C@@]6(C)CC[C@H](O[C@@H]7O[C@H](C(=O)O)[C@@H](O)[C@H](O)[C@H]7O[C@@H]7O[C@H](CO)[C@H](O)[C@H](O)[C@H]7O)[C@@](C)(C=O)[C@@H]6CC[C@@]5(C)[C@]3(C)C[C@H]4O)O[C@H](C)[C@H](O)[C@@H]2O)[C@H](O)[C@H](O)[C@H]1O
Activity (Jurkat [6]): inactive
Activity (Jurkat [7]): inactive

COc1ccc(/C=C/C(=O)O[C@@H]2[C@H](O)[C@@H](O[C@@H]3O[C@@H](C)[C@H](O)[C@@H](O)[C@H]3O)[C@H](OC(=O)[C@]34CCC(C)(C)C[C@H]3C3=CC[C@@H]5[C@@]6(C)CC[C@H](O[C@@H]7O[C@H](C(=O)O)[C@@H](O)[C@H](O)[C@H]7O[C@@H]7O[C@H](CO)[C@H](O)[C@H](O)[C@H]7O)[C@@](C)(C=O)[C@@H]6CC[C@@]5(C)[C@]3(C)C[C@H]4O)O[C@@H]2C)cc1 (mixture of isomers) [JENISSEENSOSIDE C/D]
fold change (FC) (Jurkat [1]): 9
Activity (Jurkat [8]): Active
Activity (Jurkat [2]): 1.36
